Like-named read-outs stand apart in the source and are kept apart here. Starred links: 1 amine or outer side, 2 acyl side, 3 side chain; linkers in the order of their positions; H or OH if unused. Non-standard residues stand in square brackets, D forms with d. Residues, ends and D or L forms follow the SMILES beside them. Groups on a side chain read outwards from the residue. *: point of attachment. C20 diacid = O=C(O)CCCCCCCCCCCCCCCCCCC(=O)*; γGlu = O=C(O)[C@H](CCC(=O)[*:2])N[*:1]; Hyp = O=C(O)[C@@H]1C[C@@H](O)CN1; NMeI = CC[C@H](C)[C@H](NC)C(=O)O; Nle = CCCC[C@H](N)C(=O)O; Ac5c = NC1(C(=O)O)CCCC1; AEEA = NCCOCCOCC(=O)O; Aib = CC(C)(N)C(=O)O

The record followed here is patent publication EP4810052A2, “HCRHR2 SELECTIVE POLYPEPTIDES” (Gubra A/S, priority 2023, dated 2026).

One test has as its target T1, hCRHR2 (Homo sapiens, UniProt Q13324).
T1 sequence (Q13324 1-411): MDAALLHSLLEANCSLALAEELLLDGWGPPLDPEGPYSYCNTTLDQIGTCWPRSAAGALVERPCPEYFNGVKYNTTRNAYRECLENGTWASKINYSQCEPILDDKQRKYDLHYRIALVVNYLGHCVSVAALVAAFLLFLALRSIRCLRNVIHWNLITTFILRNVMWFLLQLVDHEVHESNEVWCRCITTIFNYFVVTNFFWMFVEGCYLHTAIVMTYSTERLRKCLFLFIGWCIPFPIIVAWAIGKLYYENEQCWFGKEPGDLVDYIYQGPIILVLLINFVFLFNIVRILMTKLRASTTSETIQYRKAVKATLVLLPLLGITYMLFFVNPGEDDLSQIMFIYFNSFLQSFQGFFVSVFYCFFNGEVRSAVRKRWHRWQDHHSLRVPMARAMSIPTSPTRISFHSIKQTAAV
The test can be described thus: HTRF cAMP assay, determination of hCRHR2 potency (peptide libraries 5 conc., purified peptides 11 conc.). It counts as cell-based. The source says: HTRF (CisBio) cAMP assay: The assay technology has thoroughly been described in the CisBio HTRF cAMP assay Kit manual (# 62AM4PEC). Briefly, time resolved fluorescence technic was applied to measure cAMP. This technic is based on a competitive immunoassay using cryptate-labelled anti-cAMP antibody and d2-labeled cAMP. In the absence of cellular cAMP, the anti-cAMP cryptate conjugate may get into proximity to cAMP-d2 conjugate and energy (FRET) can be transferred from cryptate to d2.
CHO-K1 cells stably expressing the human corticotropin-releasing hormone receptor 2 (Eurofins/DiscoverX, Cat #95-0048C2 hCRHR2 stable monoclonal cell lines) were used as cells in suspension, brought to life from frozen cell stocks immediately before assay performance.
Concentration-response evaluation of compounds was performed with 5 concentrations of agonist peptides and EC50 values were calculated by nonlinear regression using sigmoid concentration-response with variable slope.
Concentration-response evaluation of compounds was performed with 11 concentrations of agonist peptides and EC50 values were calculated by nonlinear regression using sigmoid concentration-response with variable slope.

A further test concerns the target T2, hCRHR1 (Homo sapiens, UniProt P34998).
T2 sequence (P34998 24-415): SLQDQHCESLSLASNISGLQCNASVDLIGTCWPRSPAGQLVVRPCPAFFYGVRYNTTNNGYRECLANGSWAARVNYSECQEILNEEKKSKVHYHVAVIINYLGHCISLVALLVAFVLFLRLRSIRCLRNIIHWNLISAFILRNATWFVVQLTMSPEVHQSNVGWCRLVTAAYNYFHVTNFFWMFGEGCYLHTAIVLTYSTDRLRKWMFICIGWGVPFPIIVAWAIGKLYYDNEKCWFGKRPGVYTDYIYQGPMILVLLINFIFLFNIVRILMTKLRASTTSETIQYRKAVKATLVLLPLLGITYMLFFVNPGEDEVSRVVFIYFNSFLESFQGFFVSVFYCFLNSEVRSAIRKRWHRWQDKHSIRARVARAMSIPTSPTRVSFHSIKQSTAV
In words: HTRF cAMP assay, determination of hCRHR1 potency (peptide libraries 5 conc., purified peptides 11 conc.). It counts as cell-based. An excerpt: HTRF (CisBio) cAMP assay: The assay technology has thoroughly been described in the CisBio HTRF cAMP assay Kit manual (# 62AM4PEC). Briefly, time resolved fluorescence technic was applied to measure cAMP. This technic is based on a competitive immunoassay using cryptate-labelled anti-cAMP antibody and d2-labeled cAMP. In the absence of cellular cAMP, the anti-cAMP cryptate conjugate may get into proximity to cAMP-d2 conjugate and energy (FRET) can be transferred from cryptate to d2. CHO-K1 cells stably expressing the human corticotropin-releasing hormone receptor 1 (Eurofins/DiscoverX Cat #95-0047C2 hCRHR1 stable monoclonal cell lines) were used as cells in suspension, brought to life from frozen cell stocks immediately before assay performance. […] Concentration-response evaluation of compounds was performed with 5 concentrations of agonist peptides and EC50 values were calculated by nonlinear regression using sigmoid concentration-response with variable slope. Concentration-response evaluation of compounds was performed with 11 concentrations of agonist peptides and EC50 values were calculated by nonlinear regression using sigmoid concentration-response with variable slope.

Setting [1] is: library peptides, matched molecular pairs L vs Nle in position X^38, read-out: Potency hCRHR2 pEC50 (converted).
[2] abbreviates: library peptides, matched molecular pairs L vs Nle in position X^38, read-out: Potency hCRHR1 pEC50 (converted).

For `CCCC[C@H](NC(=O)[C@@H](NC(=O)[C@H](CCC(=O)O)NC(=O)[C@H](C)NC(=O)[C@H](CC(N)=O)NC(=O)[C@@H](NC(=O)[C@H](CCCCNC(=O)COCCOCCNC(=O)COCCOCCNC(=O)CC[C@H](NC(=O)CC[C@H](NC(=O)CCCCCCCCCCCCCCCCCCC(=O)O)C(=O)O)C(=O)O)NC(=O)[C@H](C)NC(=O)[C@H](CCC(N)=O)NC(=O)[C@H](CCC(=O)O)NC(=O)[C@H](CCCNC(=N)N)NC(=O)[C@H](C)NC(=O)[C@@H](NC(=O)[C@H](CCCNC(=N)N)NC(=O)[C@H](C)NC(=O)[C@H](CCCNC(=N)N)NC(=O)[C@H](C)NC(=O)[C@H](CCC(N)=O)NC(=O)[C@H](CCC(=O)O)NC(=O)[C@H](CC(C)C)NC(=O)[C@H](CC(C)C)NC(=O)[C@@H](NC(=O)[C@H](CCC(N)=O)NC(=O)[C@H](CC(C)C)NC(=O)[C@H](CC(C)C)NC(=O)CNC(=O)[C@@H](NC(=O)[C@@H]1C[C@@H](O)CN1C(=O)[C@@H](NC(=O)[C@H](CC(=O)O)NC(=O)[C@H](CC(C)C)NC(=O)[C@H](CO)NC(=O)[C@H](CC(C)C)NC(=O)[C@@H](NC(=O)[C@@H](N)[C@@H](C)CC)C(C)C)C(C)C)[C@@H](C)CC)[C@@H](C)CC)C(C)C)[C@@H](C)O)[C@@H](C)CC)C(=O)N[C@@H](C)C(=O)N[C@@H](CCC(=O)O)C(=O)N[C@H](C(N)=O)C(C)C` [compound 85] (H-IVLSLDV[Hyp]IGLLQILLEQARARVAREQAK([AEEA-AEEA-γGlu-γGlu-C20 diacid])TNAEI[Nle]AEV-NH2), the results for the EC50 at hCRHR2 (setting [1]) and at hCRHR1 (setting [2]) were 0.251 nM and 2 nM, respectively.
On to `CCCC[C@H](NC(=O)[C@@H](NC(=O)[C@H](CCC(=O)O)NC(=O)[C@H](C)NC(=O)[C@H](CC(N)=O)NC(=O)C(C)(C)NC(=O)[C@H](CCCCNC(=O)COCCOCCNC(=O)COCCOCCNC(=O)CC[C@H](NC(=O)CC[C@H](NC(=O)CCCCCCCCCCCCCCCCCCC(=O)O)C(=O)O)C(=O)O)NC(=O)[C@H](C)NC(=O)[C@H](CCC(N)=O)NC(=O)[C@H](CCC(=O)O)NC(=O)[C@H](CCCNC(=N)N)NC(=O)[C@H](C)NC(=O)[C@H](C)NC(=O)[C@H](CCCNC(=N)N)NC(=O)[C@H](C)NC(=O)[C@H](CCCNC(=N)N)NC(=O)[C@H](C)NC(=O)[C@H](CCC(N)=O)NC(=O)[C@H](CCCCN)NC(=O)[C@H](CC(C)C)NC(=O)[C@H](CC(C)C)NC(=O)[C@@H](NC(=O)[C@H](CCC(N)=O)NC(=O)[C@H](CC(C)C)NC(=O)[C@H](CC(C)C)NC(=O)CNC(=O)[C@@H](NC(=O)[C@@H]1CCCN1C(=O)[C@@H](NC(=O)[C@H](CC(=O)O)NC(=O)[C@H](CC(C)C)NC(=O)[C@H](CO)NC(=O)[C@H](CC(C)C)NC(=O)[C@@H](NC(=O)[C@@H](NC)[C@@H](C)CC)C(C)C)C(C)C)[C@@H](C)CC)[C@@H](C)CC)[C@@H](C)CC)C(=O)N[C@@H](C)C(=O)N[C@@H](CCC(=O)O)C(=O)N[C@H](C(N)=O)C(C)C` [compound 233] (H-[NMeI]VLSLDVPIGLLQILLKQARARAAREQAK([AEEA-AEEA-γGlu-γGlu-C20 diacid])[Aib]NAEI[Nle]AEV-NH2), for which the EC50 on hCRHR2 (Table 4, library peptides having X^38 = Nle, read-out: hCRHR2 pEC50 (converted)) is 0.0398 nM; on hCRHR1 (Table 4, library peptides having X^38 = Nle, read-out: hCRHR1 pEC50 (converted)), 3160 nM.
As for `CC[C@H](C)[C@H](N)C(=O)N[C@H](C(=O)N[C@@H](CC(C)C)C(=O)N[C@@H](CO)C(=O)N[C@@H](CC(C)C)C(=O)N[C@@H](CC(=O)O)C(=O)NC1(C(=O)N2CCC[C@H]2C(=O)N[C@H](C(=O)NCC(=O)N[C@@H](CC(C)C)C(=O)N[C@@H](CC(C)C)C(=O)N[C@@H](CCC(N)=O)C(=O)N[C@H](C(=O)N[C@@H](CC(C)C)C(=O)N[C@@H](CC(C)C)C(=O)N[C@@H](CCC(=O)O)C(=O)N[C@@H](CCC(N)=O)C(=O)N[C@@H](C)C(=O)N[C@@H](CCCNC(=N)N)C(=O)N[C@@H](C)C(=O)N[C@@H](CCCNC(=N)N)C(=O)N[C@@H](CCC(N)=O)C(=O)N[C@@H](C)C(=O)N[C@@H](CCCNC(=N)N)C(=O)N[C@@H](CCC(=O)O)C(=O)N[C@@H](CCC(N)=O)C(=O)N[C@@H](C)C(=O)N[C@@H](CCCCNC(=O)COCCOCCNC(=O)COCCOCCNC(=O)CC[C@H](NC(=O)CC[C@H](NC(=O)CCCCCCCCCCCCCCCCCCC(=O)O)C(=O)O)C(=O)O)C(=O)N[C@H](C(=O)N[C@@H](CC(N)=O)C(=O)N[C@@H](C)C(=O)N[C@@H](CCC(=O)O)C(=O)N[C@H](C(=O)N[C@@H](CC(C)C)C(=O)N[C@@H](C)C(=O)N[C@@H](CCC(=O)O)C(=O)N[C@H](C(N)=O)C(C)C)[C@@H](C)CC)[C@@H](C)O)[C@@H](C)CC)[C@@H](C)CC)CCCC1)C(C)C` [compound 78] (H-IVLSLD[Ac5c]PIGLLQILLEQARARQAREQAK([AEEA-AEEA-γGlu-γGlu-C20 diacid])TNAEILAEV-NH2), the values for the EC50 on hCRHR2 (setting [1]) and at hCRHR1 (setting [2]) were 0.398 nM and 7.94 nM, respectively.
The like results for `CCCC[C@H](NC(=O)[C@@H](NC(=O)[C@H](CCC(=O)O)NC(=O)[C@H](C)NC(=O)[C@H](CC(N)=O)NC(=O)[C@@H](NC(=O)[C@H](CCCCNC(=O)COCCOCCNC(=O)COCCOCCNC(=O)CC[C@H](NC(=O)CC[C@H](NC(=O)CCCCCCCCCCCCCCCCCCC(=O)O)C(=O)O)C(=O)O)NC(=O)[C@H](C)NC(=O)[C@H](CCCNC(=N)N)NC(=O)[C@H](CCC(=O)O)NC(=O)[C@H](CCCNC(=N)N)NC(=O)[C@H](C)NC(=O)[C@H](C)NC(=O)[C@H](CCC(N)=O)NC(=O)[C@H](C)NC(=O)[C@H](CCCNC(=N)N)NC(=O)[C@H](C)NC(=O)[C@H](CCC(N)=O)NC(=O)[C@H](CCC(=O)O)NC(=O)[C@H](CC(C)C)NC(=O)[C@H](CC(C)C)NC(=O)[C@@H](NC(=O)[C@H](CCC(N)=O)NC(=O)[C@H](CC(C)C)NC(=O)[C@H](CC(C)C)NC(=O)CNC(=O)[C@@H](NC(=O)[C@@H]1CCCN1C(=O)[C@@H](NC(=O)[C@H](CC(=O)O)NC(=O)[C@H](CC(C)C)NC(=O)[C@H](CO)NC(=O)[C@H](CC(C)C)NC(=O)[C@@H](NC(=O)[C@@H](N)[C@@H](C)CC)C(C)C)C(C)C)[C@@H](C)CC)[C@@H](C)CC)[C@@H](C)O)[C@@H](C)CC)C(=O)N[C@@H](C)C(=O)N[C@@H](CCC(=O)O)C(=O)N[C@H](C(N)=O)C(C)C` [compound 49] (H-IVLSLDVPIGLLQILLEQARAQAARERAK([AEEA-AEEA-γGlu-γGlu-C20 diacid])TNAEI[Nle]AEV-NH2) were, in that order, 0.126 nM and 3160 nM.
